Source: the supplement of paper PMC13207355

Legend:
Details in all cases: exposure time: 72 h
[1] = system: E13 (patient-derived glioblastoma stem cells of classical subtype); assay: surviving fraction (nuclei count normalised to DMSO); higher = more cells surviving (less toxic)
[2] = system: E21 (patient-derived glioblastoma stem cells of mesenchymal subtype); assay: as above
[3] = system: E28 (patient-derived glioblastoma stem cells of classical subtype); assay: as above
[4] = system: E34 (patient-derived glioblastoma stem cells of proneural subtype); assay: as above
[5] = system: E57 (patient-derived glioblastoma stem cells of mesenchymal subtype); assay: as above
[6] = system: FT3469 (normal neural stem cell line); assay: as above
[7] = system: E13; assay: phenotypic distance (Euclidean, principal components) from DMSO controls (arbitrary units); higher = stronger morphological change
[8] = system: E21; assay: as above
[9] = system: E28; assay: as above
[10] = system: E34; assay: as above
[11] = system: E57; assay: as above
[12] = system: FT3469; assay: as above
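Wherever phenotypic distance (Euclidean, principal components) from DMSO controls is given: cell Painting imaging in 384-well plates, CellProfiler features reduced to at least 20 principal components, Euclidean distance versus same-plate DMSO vehicle wells (0.1% v/v), median over six images per well.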
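Wherever surviving fraction (nuclei count normalised to DMSO) is given: nuclei counted by high-content imaging of Hoechst-stained cells in laminin-coated 384-well plates, relative to 0.1% DMSO vehicle wells, with staurosporine as cell-death control.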

O=C(C1CC1)N1CC[C@@H](Cc2n[nH]c(=O)n2-c2ccc(-c3ccc4occc4c3)cc2)C1
Details	phenotypic distance	surviving fraction
[1], 4.1 nM	–	0.7243
[1], 12.3 nM	–	0.771
[1], 37 nM	–	0.726
[1], 111.1 nM	–	0.671
[1], 333.3 nM	–	0.641
[1], 1000 nM	–	0.744
[1], 3000 nM	–	0.66
[2], 4.1 nM	–	0.835
[2], 12.3 nM	–	0.849
[2], 37 nM	–	0.804
[2], 111.1 nM	–	0.777
[2], 333.3 nM	–	0.749
[2], 1000 nM	–	0.789
[2], 3000 nM	–	0.732
[3], 4.1 nM	–	0.827
[3], 12.3 nM	–	0.792
[3], 37 nM	–	0.771
[3], 111.1 nM	–	0.752
[3], 333.3 nM	–	0.786
[3], 1000 nM	–	0.662
[3], 3000 nM	–	0.704
[4], 4.1 nM	–	0.853
[4], 12.3 nM	–	0.872
[4], 37 nM	–	0.906
[4], 111.1 nM	–	0.895
[4], 333.3 nM	–	0.879
[4], 1000 nM	–	0.864
[4], 3000 nM	–	0.811
[5], 4.1 nM	–	0.616
[5], 12.3 nM	–	0.62
[5], 37 nM	–	0.578
[5], 111.1 nM	–	0.574
[5], 333.3 nM	–	0.526
[5], 1000 nM	–	0.53
[5], 3000 nM	–	0.469
[6], 4.1 nM	–	0.786
[6], 12.3 nM	–	0.874
[6], 37 nM	–	0.823
[6], 111.1 nM	–	0.77
[6], 333.3 nM	–	0.783
[6], 1000 nM	–	0.769
[6], 3000 nM	–	0.666
[7], 4.1 nM	3.07	–
[7], 12.3 nM	3.018	–
[7], 37 nM	3.95	–
[7], 111.1 nM	3.29	–
[7], 333.3 nM	3.49	–
[7], 1000 nM	3.21	–
[7], 3000 nM	2.99	–
[8], 4.1 nM	2.24	–
[8], 12.3 nM	2.337	–
[8], 37 nM	2.41	–
[8], 111.1 nM	2.65	–
[8], 333.3 nM	2.64	–
[8], 1000 nM	2.59	–
[8], 3000 nM	2.62	–
[9], 4.1 nM	2.86	–
[9], 12.3 nM	3.11	–
[9], 37 nM	3.37	–
[9], 111.1 nM	3.59	–
[9], 333.3 nM	3.55	–
[9], 1000 nM	3.85	–
[9], 3000 nM	3.76	–
[10], 4.1 nM	1.76	–
[10], 12.3 nM	2.04	–
[10], 37 nM	2.26	–
[10], 111.1 nM	2.59	–
[10], 333.3 nM	2.265	–
[10], 1000 nM	2.464	–
[10], 3000 nM	2.5	–
[11], 4.1 nM	3.85	–
[11], 12.3 nM	3.99	–
[11], 37 nM	4.34	–
[11], 111.1 nM	4.35	–
[11], 333.3 nM	4.55	–
[11], 1000 nM	4.45	–
[11], 3000 nM	4.65	–
[12], 4.1 nM	2.28	–
[12], 12.3 nM	2.24	–
[12], 37 nM	2.6	–
[12], 111.1 nM	3.07	–
[12], 333.3 nM	2.8	–
[12], 1000 nM	3.17	–
[12], 3000 nM	3.52	–

CN[C@@H](C)C(=O)N[C@H](C(=O)N1CCC[C@H]1C(=O)N[C@H]1c2ccccc2C[C@H]1OCC#CC#CCO[C@@H]1Cc2ccccc2[C@@H]1NC(=O)[C@@H]1CCCN1C(=O)[C@@H](NC(=O)[C@H](C)NC)C1CCCCC1)C1CCCCC1 [AZD5582]
Details	phenotypic distance	surviving fraction
[1], 4.1 nM	–	0.897
[1], 12.3 nM	–	0.9073
[1], 37 nM	–	0.764
[1], 111.1 nM	–	0.8218
[1], 333.3 nM	–	0.814
[1], 1000 nM	–	0.789
[1], 3000 nM	–	0.755
[2], 4.1 nM	–	0.73
[2], 12.3 nM	–	0.739
[2], 37 nM	–	0.742
[2], 111.1 nM	–	0.721
[2], 333.3 nM	–	0.628
[2], 1000 nM	–	0.633
[2], 3000 nM	–	0.5049
[3], 4.1 nM	–	0.975
[3], 12.3 nM	–	1
[3], 37 nM	–	0.978
[3], 111.1 nM	–	1.01
[3], 333.3 nM	–	1.021
[3], 1000 nM	–	0.944
[3], 3000 nM	–	0.802
[4], 4.1 nM	–	0.925
[4], 12.3 nM	–	0.838
[4], 37 nM	–	0.855
[4], 111.1 nM	–	0.911
[4], 333.3 nM	–	0.9
[4], 1000 nM	–	0.847
[4], 3000 nM	–	0.764
[5], 4.1 nM	–	0.95
[5], 12.3 nM	–	0.901
[5], 37 nM	–	0.824
[5], 111.1 nM	–	0.756
[5], 333.3 nM	–	0.756
[5], 1000 nM	–	0.719
[5], 3000 nM	–	0.771
[6], 4.1 nM	–	1.01
[6], 12.3 nM	–	0.996
[6], 37 nM	–	1.07
[6], 111.1 nM	–	1.03
[6], 333.3 nM	–	1.09
[6], 1000 nM	–	0.918
[6], 3000 nM	–	0.951
[7], 4.1 nM	1.42	–
[7], 12.3 nM	1.1	–
[7], 37 nM	1.5	–
[7], 111.1 nM	1.31	–
[7], 333.3 nM	1.39	–
[7], 1000 nM	1.63	–
[7], 3000 nM	1.79	–
[8], 4.1 nM	1.08	–
[8], 12.3 nM	1.03	–
[8], 37 nM	1.42	–
[8], 111.1 nM	1.39	–
[8], 333.3 nM	1.47	–
[8], 1000 nM	1.24	–
[8], 3000 nM	1.92	–
[9], 4.1 nM	0.701	–
[9], 12.3 nM	0.512	–
[9], 37 nM	0.645	–
[9], 111.1 nM	0.558	–
[9], 333.3 nM	0.744	–
[9], 1000 nM	0.712	–
[9], 3000 nM	2.48	–
[10], 4.1 nM	0.7	–
[10], 12.3 nM	0.804	–
[10], 37 nM	0.881	–
[10], 111.1 nM	1.07	–
[10], 333.3 nM	0.735	–
[10], 1000 nM	0.779	–
[10], 3000 nM	1.26	–
[11], 4.1 nM	0.861	–
[11], 12.3 nM	1.22	–
[11], 37 nM	1.41	–
[11], 111.1 nM	2.04	–
[11], 333.3 nM	2.285	–
[11], 1000 nM	2.41	–
[11], 3000 nM	2.795	–
[12], 4.1 nM	0.951	–
[12], 12.3 nM	1.11	–
[12], 37 nM	1.34	–
[12], 111.1 nM	0.955	–
[12], 333.3 nM	0.844	–
[12], 1000 nM	1.57	–
[12], 3000 nM	1.61	–

CCn1cc(-c2ccnc3[nH]c(-c4cccc(CN(C)C)c4)cc23)c(-c2ccc(NC(=O)N(C)C)cc2)n1
Details	phenotypic distance	surviving fraction
[1], 4.1 nM	–	0.468
[1], 12.3 nM	–	0.437
[1], 37 nM	–	0.458
[1], 111.1 nM	–	0.46
[1], 333.3 nM	–	0.49
[1], 1000 nM	–	0.456
[1], 3000 nM	–	0.439
[2], 4.1 nM	–	0.418
[2], 12.3 nM	–	0.428
[2], 37 nM	–	0.442
[2], 111.1 nM	–	0.449
[2], 333.3 nM	–	0.359
[2], 1000 nM	–	0.4316
[2], 3000 nM	–	0.314
[3], 4.1 nM	–	0.639
[3], 12.3 nM	–	0.603
[3], 37 nM	–	0.542
[3], 111.1 nM	–	0.5559
[3], 333.3 nM	–	0.549
[3], 1000 nM	–	0.53
[3], 3000 nM	–	0.397
[4], 4.1 nM	–	0.664
[4], 12.3 nM	–	0.622
[4], 37 nM	–	0.787
[4], 111.1 nM	–	0.815
[4], 333.3 nM	–	0.842
[4], 1000 nM	–	0.8037
[4], 3000 nM	–	0.673
[5], 4.1 nM	–	0.385
[5], 12.3 nM	–	0.338
[5], 37 nM	–	0.287
[5], 111.1 nM	–	0.325
[5], 333.3 nM	–	0.306
[5], 1000 nM	–	0.314
[5], 3000 nM	–	0.221
[6], 4.1 nM	–	0.759
[6], 12.3 nM	–	0.76
[6], 37 nM	–	0.788
[6], 111.1 nM	–	0.844
[6], 333.3 nM	–	0.708
[6], 1000 nM	–	0.729
[6], 3000 nM	–	0.591
[7], 4.1 nM	4.52	–
[7], 12.3 nM	4.8	–
[7], 37 nM	4.56	–
[7], 111.1 nM	5.0354	–
[7], 333.3 nM	4.64	–
[7], 1000 nM	4.84	–
[7], 3000 nM	3.74	–
[8], 4.1 nM	4.9	–
[8], 12.3 nM	5.1	–
[8], 37 nM	5.06	–
[8], 111.1 nM	5.32	–
[8], 333.3 nM	5.21	–
[8], 1000 nM	4.91	–
[8], 3000 nM	5.07	–
[9], 4.1 nM	2.81	–
[9], 12.3 nM	2.81	–
[9], 37 nM	2.55	–
[9], 111.1 nM	2.69	–
[9], 333.3 nM	2.57	–
[9], 1000 nM	2.83	–
[9], 3000 nM	2.95	–
[10], 4.1 nM	2.75	–
[10], 12.3 nM	2.68	–
[10], 37 nM	2.46	–
[10], 111.1 nM	2.4	–
[10], 333.3 nM	2.43	–
[10], 1000 nM	2.62	–
[10], 3000 nM	1.93	–
[11], 4.1 nM	4.79	–
[11], 12.3 nM	4.9	–
[11], 37 nM	6.03	–
[11], 111.1 nM	5.9	–
[11], 333.3 nM	6.027	–
[11], 1000 nM	5.9	–
[11], 3000 nM	5.4	–
[12], 4.1 nM	1.96	–
[12], 12.3 nM	2.32	–
[12], 37 nM	2	–
[12], 111.1 nM	2.07	–
[12], 333.3 nM	2.13	–
[12], 1000 nM	2.98	–
[12], 3000 nM	2.08	–
